Data: the NIST ThermoML archive (doi:10.1016/j.jct.2016.02.014)
Numbers after ± are expanded uncertainties.

Key:
[1] = 101.33 kPa, Liquid; for viscosity: Capillary tube (Ostwald / Ubbelohde) method; for mass density: Vibrating tube method
[2] = xn = mol fraction of the nth substance listed; settings: 100 kPa, Liquid, x1 = 1; for viscosity: Capillary tube (Ostwald / Ubbelohde) method; for mass density: Vibrating tube method

CCCCn1cc[n+](C)c1.N#CN=C=[N-] [1-butyl-3-methylimidazolium dicyanamide]
[1]
Settings	mass density [kg/m3]	viscosity [mPa·s]
273.15 K	1075.2 ± 8.6	95.68 ± 2.4
278.15 K	1072.13 ± 8.6	71.85 ± 1.7
283.15 K	1068.94 ± 8.6	55.27 ± 1.2
288.15 K	1065.72 ± 8.6	43.57 ± 0.99
293.15 K	1062.52 ± 8.5	35.04 ± 0.8
298.15 K	1059.33 ± 8.5	28.5 ± 0.65
303.15 K	1056.15 ± 8.5	23.52 ± 0.53
308.15 K	1052.99 ± 8.5	19.87 ± 0.45
313.15 K	1049.85 ± 8.4	16.95 ± 0.39
318.15 K	1046.72 ± 8.4	14.61 ± 0.33
323.15 K	1043.61 ± 8.4	12.65 ± 0.29
328.15 K	1040.51 ± 8.4	–
333.15 K	1037.43 ± 8.3	–

CCCCn1cc[n+](C)c1.N#CN=C=[N-] [1-butyl-3-methylimidazolium dicyanamide] + O=C1CCCO1
[2]
Settings	mass density [kg/m3]	viscosity [mPa·s]
273.15 K	1075.2 ± 8.6	95.68 ± 2.4
283.15 K	1068.94 ± 8.6	55.27 ± 1.2
293.15 K	1062.52 ± 8.5	35.04 ± 0.8
298.15 K	1059.33 ± 8.5	28.5 ± 0.65
303.15 K	1056.15 ± 8.5	23.52 ± 0.53
313.15 K	1049.85 ± 8.4	16.95 ± 0.39
323.15 K	1043.61 ± 8.4	12.65 ± 0.29
